“And” between values parts separate entries of the source, which are not always exact repeats. Identical values can stand only once.

The source of these data is PubChem BioAssay AID180 (DTP/NCI, 2004).

This assay relates to BDF1 mice, Adenocarcinoma 755 s.c., tumor weight T/C. In words: NCI In Vivo Anticancer Drug Screen. Data for tumor model Adenocarcinoma 755 (subcutaneous) in B6D2F1 (BDF1) mice. As to conditions: endpoint: mean tumor weight, schedule: Q01DX011 (ip), higher = larger tumour. In short, it runs like this: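 Values express treated (T) relative to vehicle-dosed control (C) animals, based on survival or tumour size measured after compound treatment of mice bearing a transplanted tumour.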

[1] abbreviates: dose: 25.0 mg/kg/injection, vehicle: carboxymethylcellulose (CMC).
Where [2] appears, read: dose: 15.0 mg/kg/injection, vehicle: methylcellulose (MC).
Setting [3] is: dose: 31.0 mg/kg/injection, vehicle: methylcellulose (MC).
[4] abbreviates: dose: 62.0 mg/kg/injection, vehicle: methylcellulose (MC).

As a reminder, the T/C is the result in the treated group divided by that in the control group, in per cent. Regarding `Nc1nc(SCc2ccccn2)c2[nH]cnc2n1`, the T/C (dose: 0.78 mg/kg/injection, vehicle: methylcellulose (MC)) is 63 % of control; the T/C (dose: 1.56 mg/kg/injection, vehicle: methylcellulose (MC)) was 14 % of control; the T/C (dose: 3.12 mg/kg/injection, vehicle: methylcellulose (MC)) was 3 % of control; the T/C (dose: 6.25 mg/kg/injection, vehicle: methylcellulose (MC)) was 2 % of control.
Consider `Nc1ccc(C(=O)O)c(O)c1`, for which the T/C runs as follows: (dose: 37.88 mg/kg/injection, vehicle: carboxymethylcellulose (CMC)) 56 % of control; (dose: 43.25 mg/kg/injection, vehicle: carboxymethylcellulose (CMC)) 55 % of control; (dose: 75.75 mg/kg/injection, vehicle: carboxymethylcellulose (CMC)) 101 % of control; (dose: 86.5 mg/kg/injection, vehicle: carboxymethylcellulose (CMC)) 75 % of control; (dose: 141.17 mg/kg/injection, vehicle: carboxymethylcellulose (CMC)) 157 % of control; (dose: 151.5 mg/kg/injection, vehicle: carboxymethylcellulose (CMC)) 104 % of control. The T/C (dose: 173.0 mg/kg/injection, vehicle: carboxymethylcellulose (CMC)) is 75 % of control; the T/C (dose: 303.0 mg/kg/injection, vehicle: carboxymethylcellulose (CMC)) is 71 % of control; the T/C (dose: 346.0 mg/kg/injection, vehicle: carboxymethylcellulose (CMC)) was 82 % of control.
As to `CC(C)COC(=O)C1(N)CCCC1`, the T/C under setting [1] is 98 % of control; the T/C (dose: 50.0 mg/kg/injection, vehicle: carboxymethylcellulose (CMC)) was 33 % of control; the T/C (dose: 100.0 mg/kg/injection, vehicle: carboxymethylcellulose (CMC)) was 12 % of control.
Regarding `Cc1cnc(SCc2ccc(Cl)cc2Cl)nc1Nc1ccc(Cl)c(Cl)c1`, the T/C under setting [2] was 74 % of control, the T/C under setting [3] was 97 % of control and the T/C under setting [4] was 69 % of control.
As to `CCCCN(C)N=Nc1ccc(S(N)(=O)=O)cc1`, the T/C (dose: 4.0 mg/kg/injection, vehicle: carboxymethylcellulose (CMC)) is 91 % of control; the T/C (dose: 8.0 mg/kg/injection, vehicle: carboxymethylcellulose (CMC)) is 90 % of control and 77 % of control; the T/C (dose: 31.0 mg/kg/injection, vehicle: carboxymethylcellulose (CMC)) was 33 % of control; the T/C (dose: 32.0 mg/kg/injection, vehicle: carboxymethylcellulose (CMC)) was 108 % of control and 84 % of control; the T/C (dose: 62.0 mg/kg/injection, vehicle: carboxymethylcellulose (CMC)) was 42 % of control; the T/C (dose: 93.0 mg/kg/injection, vehicle: carboxymethylcellulose (CMC)) was 55 % of control.
Regarding `OCCn1cnc2c(SCc3ccccc3Cl)ncnc21`, the T/C is, setting by setting: (dose: 15.0 mg/kg/injection, vehicle: carboxymethylcellulose (CMC)) 77 % of control; (dose: 25.0 mg/kg/injection, vehicle: methylcellulose (MC)) 97 % of control; (dose: 30.0 mg/kg/injection, vehicle: carboxymethylcellulose (CMC)) 49 % of control; (dose: 60.0 mg/kg/injection, vehicle: carboxymethylcellulose (CMC)) 22 % of control; (dose: 150.0 mg/kg/injection, vehicle: methylcellulose (MC)) 5 % of control.
In the case of `Clc1cccc(CSc2ncnc3c2ncn3C2CCCCO2)c1` (stereo unspecified), the T/C is, setting by setting: (dose: 30.0 mg/kg/injection, vehicle: methylcellulose (MC)) 18 % of control; (dose: 100.0 mg/kg/injection, vehicle: methylcellulose (MC)) 6 % of control.
For `OCC1OC(n2cnc3c(I)ncnc32)C(O)C1O` (stereo unspecified), the T/C is, setting by setting: (dose: 30.0 mg/kg/injection, vehicle: saline) 73 % of control; (dose: 60.0 mg/kg/injection, vehicle: saline) 73 % of control; (dose: 120.0 mg/kg/injection, vehicle: saline) 49 % of control; (dose: 240.0 mg/kg/injection, vehicle: saline) 29 % of control.
As for `CCc1c(Cl)nc(N)nc1Nc1ccccc1Cl`, the T/C reads like this: under setting [2], 105 % of control; under setting [4], 103 % of control; (dose: 125.0 mg/kg/injection, vehicle: methylcellulose (MC)) 101 % of control.
With `CSc1nc(C)c(Br)c(Sc2nc(N)nc3nc[nH]c23)n1`, the T/C is, setting by setting: (dose: 0.3 mg/kg/injection, vehicle: carboxymethylcellulose (CMC)) 106 % of control; (dose: 0.7 mg/kg/injection, vehicle: carboxymethylcellulose (CMC)) 117 % of control; (dose: 6.0 mg/kg/injection, vehicle: carboxymethylcellulose (CMC)) 42 % of control; (dose: 12.0 mg/kg/injection, vehicle: carboxymethylcellulose (CMC)) 28 % of control; (dose: 24.0 mg/kg/injection, vehicle: carboxymethylcellulose (CMC)) 6 % of control.
Consider `O=P(Oc1ccccc1)(OP(=O)(Oc1ccccc1)N(CCCl)CCCl)N(CCCl)CCCl` (stereo unspecified), for which the T/C runs as follows: (dose: 25.0 mg/kg/injection, vehicle: other) 82 % of control; (dose: 50.0 mg/kg/injection, vehicle: other) 66 % of control.
For `COC1C(OC(=O)/C=C/C=C/C=C/C=C/C(=O)O)CCC2(CO2)C1C1(C)OC1CC=C(C)C` (stereo unspecified), the T/C (dose: 2.5 mg/kg/injection, vehicle: other) was 49 % of control; the T/C (dose: 5.0 mg/kg/injection, vehicle: other) was 61 % of control; the T/C (dose: 5.0 mg/kg/injection, vehicle: saline) was 78 % of control; the T/C (dose: 10.0 mg/kg/injection, vehicle: methylcellulose (MC)) was 38 % of control; the T/C (dose: 10.0 mg/kg/injection, vehicle: other) was 40 % of control; the T/C (dose: 10.0 mg/kg/injection, vehicle: saline) was 94 % of control. Besides, the T/C is, setting by setting: (dose: 20.0 mg/kg/injection, vehicle: methylcellulose (MC)) 28 % of control; (dose: 20.0 mg/kg/injection, vehicle: other) 22 % of control; (dose: 20.0 mg/kg/injection, vehicle: saline) 49 % of control; (dose: 40.0 mg/kg/injection, vehicle: methylcellulose (MC)) 24 % of control; (dose: 40.0 mg/kg/injection, vehicle: other) 18 % of control; (dose: 40.0 mg/kg/injection, vehicle: saline) 63 % of control. Further, the T/C (dose: 80.0 mg/kg/injection, vehicle: other) was 26 % of control and the T/C (dose: 80.0 mg/kg/injection, vehicle: saline) is 58 % of control.
Consider `CN(C)c1nc(S(=O)(=O)N(C)C)nc2nc[nH]c12`, for which the T/C under setting [1] was 115 % of control; the T/C (dose: 75.0 mg/kg/injection, vehicle: carboxymethylcellulose (CMC)) is 117 % of control; the T/C (dose: 225.0 mg/kg/injection, vehicle: carboxymethylcellulose (CMC)) is 95 % of control.
With `CN1CCC(N)=NC1=O`, the T/C is 88 % of control (dose: 15.0 mg/kg/injection, vehicle: saline); 92 % of control (dose: 31.0 mg/kg/injection, vehicle: saline); 92 % of control (dose: 62.0 mg/kg/injection, vehicle: saline); 65 % of control (dose: 125.0 mg/kg/injection, vehicle: saline); 74 % of control (dose: 250.0 mg/kg/injection, vehicle: saline).
For the compound `CSc1ncc(Br)c(SCc2ccc(Cl)cc2Cl)n1`, the T/C is 69 % of control under setting [2]; 108 % of control under setting [3]; 60 % of control (dose: 250.0 mg/kg/injection, vehicle: methylcellulose (MC)).
